Source: the SangsterLogP compilation
Blank lines part the entries; values can stand above or below the compound they belong to.

Experiments:
[1] = method code SF-AS, from DOI: 10.1248/cpb.28.3673
[2] = method code SF-RC, from DOI: 10.1021/jm000079i, PMID: 10956218; details: pH 7.4
[3] = not given; remark: listed apart in the source
[4] = not given; remark: listed apart in the source
[5] = method code SF-AS, from DOI: 10.1248/cpb.32.4084, PMID: 6099228; details: pH 7.4
[6] = method code SF, from DOI: 10.1023/a:1016286026462, PMID: 8570535
[7] = from Nishimura, K.; Okajima, N.; Fujita, T.; Nakajima, M. (1982). Quantitative structure-activity studies of substituted benzylchrysanthemates. IV. Physicochemical properties and rate of progress of the …
[8] = method code SF, from DOI: 10.1021/jm00114a024, PMID: 1920362
[9] = method code SF-AS, from THAKUR, B.; Mehta, U.; TIPNIS, P. (1981). Ortho effect in partition coefficients of some o-benzyloxybenzamides. Indian J Pharm Sci, 43(6)224-226.
[10] = not given; remark: listed apart in the source
[11] = not given; remark: listed apart in the source
[12] = method code SF-AS, from Busch, N.; Moleyre, J.; Bondivenne, R.; Labrid, C. (1973). Study of the predictive value of the Hansch correlation equations for a series of beta-alkoxy-beta-phenylethyl pyrrolidines. Chimica …
[13] = method code SF-AS, from DOI: 10.1128/jb.153.1.232-240.1983, PMID: 6294048
[14] = not given; remark: listed apart in the source
[15] = method code SF-AS, from DOI: 10.1248/cpb.32.5003, PMID: 6534549
[16] = not given; remark: listed apart in the source
[17] = not given; remark: listed apart in the source
[18] = method code SF-HPLC, from DOI: 10.1002/ps.2780280108
[19] = method code SF-HPLC, from DOI: 10.1002/ps.2780170106
[20] = method code SF-AS/HPLC, from Ellington, J. J. (1988). Octanol/water partition coefficients for evaluation of hazardous waste land disposal: Selected chemicals. US Environmental Protection Agency, Environmental Research …
[21] = method code SF-HPLC, from DOI: 10.1021/jm00112a026, PMID: 1875345; details: pH 7.4
[22] = not given; remark: listed apart in the source
[23] = not given; remark: listed apart in the source
[24] = method code SF-HPLC, from DOI: 10.1016/j.ejpb.2012.12.004, PMID: 23262162
[25] = not given; remark: listed apart in the source
[26] = method code SF-HPLC, from DOI: 10.1023/a:1015924724973, PMID: 2762226; details: pH 7.4
[27] = not given; remark: listed apart in the source
[28] = method code SF, from DOI: 10.1021/jm00237a002, PMID: 1133810; details: pH 7.2
[29] = method code RP-HPLC, from DOI: 10.2166/wqrj.1987.010; details: pH 7.0
[30] = method code SF-AS, from Schaper, J. (1979). Simultaneous determination of electronic and lipophilic properties of acids and bases by nonlinear regression analysis of pH-dependent partition measurements. J. Chem. Research …
[31] = method code SF-HPLC, from DOI: 10.1016/j.ejpb.2006.11.002, PMID: 17182232; details: pH 7.4
[32] = method code SF-AS, from DOI: 10.1023/a:1016392123137, PMID: 24272811
[33] = not given; remark: listed apart in the source
[34] = method code SF-HPLC, from PMID: 1515051; details: pH 6.0

- logP: 1.59
Structure (SMILES): CCC(CC)(C(N)=O)c1ccc2c(c1)OCO2

- logP [3]: 4.75
Structure (SMILES): Clc1ccccc1C(c1ccccc1)(c1ccccc1)n1ccnc1

- logP [4]: 1.55
Structure (SMILES): Nc1ccc(S(=O)(=O)Nc2ccccc2)cc1

- logP [8]: 0.45
Structure (SMILES): CNCCN(C)S(=O)(=O)c1ccc(CONC(N)=O)c([N+](=O)[O-])c1

- logP [9]: 1.86
Structure (SMILES): Cc1ccc(COc2ccccc2C(N)=O)cc1

- logP [12]: 1.38
Structure (SMILES): OC(CN1CCCC1)c1ccccc1 (stereo not given)

- logP [14]: 4.2
Structure (SMILES): CCCc1nc(S(=O)(=O)Nc2c(F)cccc2F)nn1-c1ccccc1

- logP [13]: -0.24
Structure (SMILES): Cc1nnc(SCC2=C(C(=O)O)N3C(=O)[C@@H](NC(=O)Cn4cnnn4)[C@H]3SC2)s1

- logP [10]: 4.16
Structure (SMILES): c1ccc(Cc2nc3ccccc3[nH]2)cc1

- logP [3]: 0.15
Structure (SMILES): CS(=O)(=O)c1ccc([C@@H](O)[C@@H](CO)NC(=O)C(Cl)Cl)cc1

- logP [20]: 4.12
Structure (SMILES): O=[N+]([O-])c1cc(C2CCCCC2)c(O)c([N+](=O)[O-])c1

- logP [23]: 1.1
Structure (SMILES): CNS(=O)(=O)Cc1ccc2[nH]cc(CCN(C)C)c2c1

- logP [24]: 2.56
Structure (SMILES): Oc1ccc(/C=C/c2cc(O)cc(O)c2)cc1

- logP [22]: 1.9
Structure (SMILES): CN1C(C(=O)Nc2ccccn2)=C(O)c2sccc2S1(=O)=O

- logP [25]: 1.16
Structure (SMILES): COc1ccc2nc(C3=N[C@@H](C(=O)O)CS3)sc2c1

- logD ([19]; pH 2.0): 3
Structure (SMILES): O=C(O)CCOc1cccc2ccccc12

- logP [27]: 4.42
Structure (SMILES): S=C=NCc1ccc2ccccc2c1

- logD [28]: 0.53
Structure (SMILES): CCOc1cnc(NS(=O)(=O)c2ccccc2)nc1

- logD [29]: 6.69
Structure (SMILES): Cc1cc(Cl)ccc1OCC(=O)OCCCCCC(C)C

- logD [26]: -0.46
Structure (SMILES): N[C@@H](Cc1ccc(O)c(O)c1)C(=O)OCCCCO

- logP [30]: 1.57
Structure (SMILES): CN(C)c1ccc(NS(=O)(=O)c2ccc(N)cc2)cc1

- logP [27]: 5.5
Structure (SMILES): S=C=Nc1ccc(-c2ccc(N=C=S)cc2)cc1

- logD [2]: 2.83
Structure (SMILES): COc1ccc(Sc2ccccc2N(C)C)c(N)c1

- logP [14]: 3
Structure (SMILES): Cc1ccc(Cl)c(NS(=O)(=O)c2nc(C)n(-c3ncccn3)n2)c1Cl

- logP [30]: 2.11
Structure (SMILES): Cc1ccc(NS(=O)(=O)c2ccc(N)cc2)cc1

- logD [31]: -0.12
Structure (SMILES): COC(=O)C(NC(=O)c1cccnc1)n1cc(F)c(=O)[nH]c1=O (stereo not given)

- logP [32]: 2.46
Structure (SMILES): Cc1ccc2ccc3ccc(C)nc3c2n1

- logP [24]: 2.61
Structure (SMILES): Cc1c(C)c2c(c(C)c1O)CCC(C)(C(=O)O)O2 (stereo not given)

- logP [6]: 4.83
Structure (SMILES): COc1ccc(C=CC(=O)OCCC(C)C)cc1

- logD [31]: 0.21
Structure (SMILES): CCOC(=O)C(NC(=O)c1cccnc1)n1cc(F)c(=O)[nH]c1=O (stereo not given)

- logD ([32]; pH 6.0): 3.04
Structure (SMILES): Cc1ccc2c(N)nc(-c3ccccn3)cc2c1

- logD [28]: 0.88
Structure (SMILES): CCc1cnc(NS(=O)(=O)c2ccccc2)nc1

- logP [25]: 2.23
Structure (SMILES): COC(=O)[C@H]1CSC(c2nc3ccc(O)cc3s2)=N1

- logD [34]: 2.51
Structure (SMILES): CCOC(=O)n1c(-c2cscn2)nc2ccccc21

- logP [8]: 1.42
Structure (SMILES): CN(C)CCN(C)S(=O)(=O)c1ccc(C(C)(C)[N+](=O)[O-])c([N+](=O)[O-])c1

Further lines, the compound ahead of its results:

Structure (SMILES): Cc1cc(-c2ccc(N)c(C)c2)ccc1N
- logD ([1]; pH 5.8): 2.34

Structure (SMILES): CN(C)c1ccccc1Sc1ccc(Cl)cc1N
- logD [2]: 3.55

Structure (SMILES): COc1ccc(NC(=O)CN2CCCCC2)cc1
- logD [5]: 2.52

Structure (SMILES): Oc1cc(Cl)ccc1Oc1ccc(Cl)cc1Cl
- logP [6]: 4.53

Structure (SMILES): CC=CCOC(=O)[C@@H]1[C@@H](C=C(C)C)C1(C)C
- logP [7]: 5.09

Structure (SMILES): c1ccc2[nH]c(SCCC3CCCCC3)nc2c1
- logP [10]: 4.5

Structure (SMILES): c1ccc2c(c1)ccc1cc3ccc4ccccc4c3nc12
- logP [11]: 6.42

Structure (SMILES): CC(=O)OCC1=C(C(=O)O)N2C(=O)C(NC(=O)Cc3cc4ccccc4s3)C2SC1 (stereo not given)
- logD ([13]; pH 3.0): 1.68

Structure (SMILES): c1ccc2c(c1)Cc1ccccc1-2
- logP [11]: 4.2

Structure (SMILES): O=C(Cc1ccccc1)Nc1ccccc1O
- logP [15]: 2.4

Structure (SMILES): Cc1cc(=O)oc2c(C)c(OCC(O)CCl)ccc12 (stereo not given)
- logP [16]: 0.53

Structure (SMILES): CCOP(=O)(Sc1ccccc1)Sc1ccccc1
- logP [17]: 3.68

Structure (SMILES): CC(C)OP(=O)(OC(C)C)SCc1ccccc1
- logP [17]: 3.43

Structure (SMILES): NC(=O)c1ccccc1OCc1ccc([N+](=O)[O-])cc1
- logP [9]: 1.73

Structure (SMILES): CO[C@@]1(NC(=O)C(C(=O)O)c2ccc(O)cc2)C(=O)N2C(C(=O)O)=C(CSc3nnnn3C)CO[C@@H]21 (stereo not given in full)
- logD ([1]; pH 2.0): -0.58

Structure (SMILES): COC(=O)c1c(C)[nH]c(-c2ccc(Cl)cn2)c1C(=O)OC
- logP [18]: 2.7

Structure (SMILES): N#CCCOc1cccc2ccccc12
- logD ([19]; pH 6.4): 2.8

Structure (SMILES): O=C(CN1CCCCC1)Nc1ccc(Cl)c(Cl)c1
- logD [5]: 3.65

Structure (SMILES): CCOC(=O)C1CCC2C(C1)N2CC(O)Cn1ccnc1 (stereo not given)
- logD [21]: 1.13

Structure (SMILES): CC(C)(C)NC(=O)[C@@H]1CN(Cc2cccnc2)CCN1C[C@@H](O)C[C@@H](Cc1ccccc1)C(=O)N[C@H]1c2ccccc2C[C@H]1O
- logP [22]: 2.79

Structure (SMILES): C/C=C(/C)C(=O)O[C@H]1CCN2CC=C(COC(=O)[C@@](O)([C@H](C)OC)C(C)(C)O)[C@H]12
- logP [20]: 1.28

Structure (SMILES): COC(=O)c1c(C)[nH]c(-c2cccc(Cl)n2)c1C(=O)OC
- logP [18]: 2.65

Structure (SMILES): Nc1ccc(S(=O)(=O)Nc2ccc(S(N)(=O)=O)cc2)cc1
- logP [4]: 0.35

Structure (SMILES): OC(CN1C2C3CCC(C3)C21)Cn1ccnc1 (stereo not given)
- logD [21]: 1.6

Structure (SMILES): CCCCOC(=O)[C@@H](N)Cc1ccc(O)c(O)c1
- logD [26]: 1.19

Structure (SMILES): C=CCC(CC=C)(C(N)=O)c1ccc2c(c1)OCO2
- logP: 2.1

Structure (SMILES): Cc1cc2oc(=O)cc(C)c2cc1OCC(O)CO (stereo not given)
- logP [16]: 0.36

Structure (SMILES): CNC(=O)Oc1cccc2c1OC(C)(C)C2
- logD [29]: 1.88

Structure (SMILES): C=CCC1(C(=O)OC)C(C=C(C)C)C1(C)C (stereo not given)
- logP [7]: 4.89

Structure (SMILES): CN(C)CCN(Cc1ccccc1)c1ccccn1
- logP [23]: 2.65

Structure (SMILES): CCN(CC)CCSCc1ccccc1
- logP [33]: 2.66

Structure (SMILES): CC(C)COC(=O)n1c(-c2cscn2)nc2ccccc21
- logD [34]: 3.46

Structure (SMILES): O=C(Cc1ccccc1)Nc1ccccc1F
- logP [15]: 2.62

Structure (SMILES): COC(CN1CCCC1)c1ccccc1 (stereo not given)
- logP [12]: 1.88

Structure (SMILES): CN1CC(NC(=O)CSC(=O)c2ccccc2)CC2c3cccc4[nH]cc(c34)CC21 (stereo not given)
- logP [33]: 1.9
